From ChEMBL document CHEMBL3046636, “Synthesis and anti-juvenile hormone activity of ethyl 4-(2-aryloxyhexyloxy)benzoates” (2006)
Activity calls are given as the source filed them. The rule behind the calls is not given here.

Legend:
[1] = system: Bombyx mori; assay: Induction of precocious metamorphosis in 24 hr old third-instar larvae of Bombyx mori assessed as precocious metamorphosis at 10 ug/larva topically by antijuvenile hormone activity assay; assay type: functional
[2] = system: Bombyx mori; assay: Induction of precocious metamorphosis in newly molted fourth-instar larvae of Bombyx mori assessed as precocious metamorphosis measured after topical treatment; assay type: functional, organism-based
[3] = system: Bombyx mori; assay: Induction of precocious metamorphosis in 24 hr old third-instar larvae of Bombyx mori assessed as precocious metamorphosis at 1 ug/larva topically by antijuvenile hormone activity assay; assay type: functional
[4] = system: Bombyx mori; assay: Induction of precocious metamorphosis in 24 hr old third-instar larvae of Bombyx mori assessed as precocious metamorphosis at 40 ug/larva topically by antijuvenile hormone activity assay; assay type: functional
[5] = system: Bombyx mori; assay: Induction of precocious metamorphosis in 24 hr old third-instar larvae of Bombyx mori assessed as precocious metamorphosis at 200 ppm dietary administration by antijuvenile hormone activity assay; assay type: functional
[6] = system: Bombyx mori; assay: Induction of precocious metamorphosis in 24 hr old third-instar larvae of Bombyx mori assessed as precocious metamorphosis at 50 ppm dietary administration by antijuvenile hormone activity assay; assay type: functional

Q: How did the Activity [1] turn out when `CCCCC(COc1ccc(C(=O)OCC)cc1)Oc1ccccc1C` (stereo not given) was run?
A: The Activity was 10%.

Q: And the Activity [2]?
A: Its Activity is “inactive”.

Q: What about the Activity [3] of the same molecule?
A: The Activity was 0%.

Q: Which Activity [1] does the source give for `CCCCC(COc1ccc(C(=O)OCC)cc1)Oc1cccnc1` (stereo not given) here?
A: Its Activity is 47%.

Q: And the Activity [2]?
A: The Activity was “inactive”.

Q: What about the Activity [3] of the same molecule?
A: The Activity was 10%.

Q: What about the Activity [4] of the same molecule?
A: Its Activity is 57%.

Q: `CCCCC(COc1ccc(C(=O)OCC)cc1)Oc1ccc(C)cc1` (stereo not given) was tested. Which Activity [1] did it give?
A: Its Activity is 45%.

Q: What about the Activity [2] of the same molecule?
A: The Activity was “inactive”.

Q: What about the Activity [3] of the same molecule?
A: Its Activity is 5%.

Q: And the Activity [4]?
A: Its Activity is 58%.

Q: `CCCCC(COc1ccc(C(=O)OCC)cc1)Oc1ccccc1` (stereo not given) was tested. Which Activity [1] did it give?
A: Its Activity is 66%.

Q: What about the Activity [5] of the same molecule?
A: The Activity was 75%.

Q: And the Activity [2]?
A: Its Activity is “inactive”.

Q: And the Activity [3]?
A: Its Activity is 32%.

Q: What about the Activity [6] of the same molecule?
A: The Activity was 25%.

Q: What about the Activity [4] of the same molecule?
A: The Activity was 70%.

Q: For `CCCCC(COc1ccc(C(=O)OCC)cc1)Oc1cccc(C)c1` (stereo not given), which Activity [1] is on record?
A: The Activity was 5%.

Q: What about the Activity [2] of the same molecule?
A: The Activity was “inactive”.

Q: What about the Activity [3] of the same molecule?
A: The Activity was 0%.

Q: And the Activity [4]?
A: Its Activity is 55%.

Q: With `CCCCC(COc1ccc(C(=O)O)cc1)Oc1ccccc1` (stereo not given) as the molecule, how does the Activity [5] read?
A: Its Activity is 0%.

Q: What about the Activity [6] of the same molecule?
A: Its Activity is 0%.

Q: Which Activity [1] does the source give for `CCCCC(COc1ccc(C(=O)OCC)cc1)Oc1ccncc1` (stereo not given) here?
A: The Activity was 0%.

Q: And the Activity [2]?
A: The Activity was “inactive”.

Q: What about the Activity [3] of the same molecule?
A: The Activity was 0%.

Q: Which Activity [1] does the source give for `CCCCC(COc1ccc(C(=O)OCC)cc1)Oc1cccc(Cl)c1` (stereo not given) here?
A: Its Activity is 45%.

Q: What about the Activity [2] of the same molecule?
A: Its Activity is “inactive”.

Q: What about the Activity [3] of the same molecule?
A: The Activity was 25%.

Q: And the Activity [4]?
A: The Activity was 75%.

Q: Which results are given for `CCCCC(COc1ccc(C(=O)OCC)cc1)Oc1ccc(Cl)cc1` (stereo not given)?
A: Activity [1]: 30%; Activity [2]: inactive; Activity [3]: 0%

Q: `CCCCC(COc1ccc(C(=O)OCC)cc1)Oc1ccc(C)nc1` (stereo not given) was tested. Which Activity [1] did it give?
A: Its Activity is 20%.

Q: And the Activity [2]?
A: Its Activity is “inactive”.

Q: What about the Activity [3] of the same molecule?
A: The Activity was 20%.

Q: And the Activity [4]?
A: The Activity was 75%.

Q: Which results are given for `CCCCC(COc1ccc(C(=O)OCC)cc1)Oc1ccccc1Cl` (stereo not given)?
A: Activity [1]: 0%; Activity [2]: inactive; Activity [3]: 0%
